Test results taken from US20060121117A1, “Anti-angiogenic compositions and methods of use” (ANGIOTECH PHARMACEUTICALS, INC., priority 1993, published 2006).

Assays:
[1] = MTX release from PCL paste; type: physicochemical; settings: high MePEG concentrations (20% MePEG in PCL)
Protocol: A known weight of a polymer (typically a 2.5 mg pellet) is added to a 15 ml test tube containing 14 ml of a buffer containing 10 mm Na2HPO4—NaH2PO4, 0.145 m NaCl and 0.4 g/l bovine serum albumin. The tubes are capped and tumbled at 37° C. At specific times all the 14 ml of the liquid buffer are removed and replaced with fresh liquid buffer.
For MTX the collected buffer is applied directly to the HPLC column with no need for extraction in methylene chloride. MTX is analyzed at 302 nm. For Vanadium containing compounds the liquid buffer is analyzed directly using a UV/VIS spectrometer in the 200 to 300 nm range.
Methotrexate (“MTX”; Sigma Chemical Co.) is ground in a pestle and mortar to reduce the particle size to below 5 microns. It is then mixed as a dry powder with polycaprolactone (molecular wt 18000 Birmingham Polymers, Alabama USA). The mixture is heated to 65° C. for 5 minutes and the molten polymer/methotrexate mixture is stirred into a smooth paste for 5 minutes. The molten paste is then taken into a 1 mL syringe, and extruded as desired.

neutrophils [2] = assay: Neutrophil chemiluminescence assay; type: cell-based; settings: Homo sapiens, paclitaxel at 28 μM, read-out: inhibition of the peak chemiluminescence response
Protocol: (§1) Opsonization of crystals or zymosan was done with 50% heparinized plasma at a concentration of 75 mg of CPPD or 12 mg of zymosan per ml of 50% plasma. Crystals or zymosan were incubated with plasma for 30 min. at 37° C. and then washed in excess HBSS.
All chemiluminescence studies were performed at a cell concentration of 5,000,000 cells/ml in HBSS with CPPD (50 mg/ml). In all experiments 0.5 ml of cells was added to 25 mg of CPPD or 0.5 mg of zymosan in 1.5 ml capped Eppendorf tubes. 10 μl of luminol dissolved in 25% DMSO in HBSS was added to a final concentration of 1 μM and the samples were mixed to initiate neutrophil activation by the crystals or zymosan. Chemiluminescence was monitored using an LKB Luminometer (Model 1250.) at 37° C. with shaking immediately prior to measurements to resuspend the crystals or zymosan. Control tubes contained cells, drug and luminol (crystals absent).

[3] = system: chick chorioallantoic membrane (CAM); assay: Chick chorioallantoic membrane (CAM) assay, agent in methylcellulose disks; settings: for Embryos Evaluated positive/total: 48 hours
[4] = Release from 50:50 ELVAX:poly-l-lactic acid microspheres; type: physicochemical; settings: 18 hours of tumbling at 37° C.
Protocol: Microspheres are then prepared in a dissolution machine (Six-spindle dissolution tester, VanderKanp, Van Kell Industries Inc., U.S.A.) in triplicate at 200 rpm, 42° C., for 3 hours. Microspheres so prepared are washed twice in water and sized on the microscope.

normal chondrocytes = assay: Chondrocyte viability (Trypan blue counting); type: cell-based; settings: up to 10^−5 M, 72 hours
neutrophils [5] = assay: Neutrophil viability (LDH release); settings: paclitaxel at 46 μM for one hour at 37° C.
Protocol: Neutrophils were prepared from freshly collected human citrated whole blood. Briefly, 400 ml of blood were mixed with 80 ml of 4% dextran T500 (Phamacia LKB, Biotechnology AB Uppsala, Sweden) in HBSS and allowed to settle for 1 h. Plasma was collected continuously and 5 ml applied to 5 ml of Ficoll Paque (Pharmacia) in 15 ml polypropylene tubes (Corning, N.Y.). Following centrifugation at 500×g for 30 min, the neutrophil pellets were washed free of erythrocytes by 20 s of hypotonic shock. Neutrophils were resuspended in HBSS, kept on ice and used for experiments within 3 h. Neutrophil viability and purity was always greater than 90%.
Cells were incubated for 20 minutes at 33° C. then for 10 minutes at 37° C. before addition to crystals or zymosan.
Control tubes containing cells with drug (crystals absent) from degranulation experiments were also assayed for LDH.

synoviocytes = assay: 3H-thymidine incorporation into synoviocytes; type: cell-based; settings: 6 or 24 hours incubation
Protocol: At these times, 1×10^−6 cpm of ^3H-thymidine was added to the cell culture and incubated for 2 hours at 37° C. The cells were placed through a cell harvester, washed through a filter, the filters were cut, and the amount of radiation contained in the filter sections determined. Once the amount of thymidine incorporated into the cells was ascertained, it was used to determine the rate of cell proliferation. This experiment was repeated three times and the data collated together.

synovial fibroblasts = assay: Synoviocyte proliferation (Trypan blue counting); settings: 24 hours
collagenase mRNA = assay: IL-1 induced collagenase expression in chondrocytes (Northern blot); type: cell-based, bovine; settings: 10^−6 M, 2 hours prior to IL-1 (20 ng/ml), further 16 hours
Protocol: The cells were then incubated for a further 16 hours. Total RNA from bovine articular chondrocytes was isolated by the acidified guanidine isothiocyanate method and the collagenase mRNA determined by Northern blot analysis. The RNA samples were prepared as described above using ^32P-labeled rat collagenase cDNA.

neutrophils [6] = assay: Neutrophil superoxide anion generation; type: cell-based, human; settings: paclitaxel at 28 μM
Protocol: as §1
Superoxide anion concentrations were measured using the superoxide dismutase inhibitable reduction of cytochrome c assay. Briefly, 25 mg of crystals or 0.5 mg of zymosan was placed in a 1.5 ml capped Eppendorf tube and warmed to 37° C. 0.5 ml of cells at 370 C were added together with ferricytochrome c (final concentration 1.2 mg/ml) and the cells were activated by shaking the capped tubes. […] Control tubes were set up under the same conditions with the inclusion of superoxide dismutase at 600 units per ml.

neutrophils [7] = assay: Neutrophil degranulation assay (myeloperoxidase, lysozyme)
c-fos mRNA = assay: c-fos expression in chondrocytes (Northern blot); type: cell-based, bovine; settings: 10^−6 M, 10^−7 M and 10^−8 M for 2 hours, then TNF 30 ng/ml for 1 hour
Protocol: Total RNA from bovine articular chondrocytes was isolated by the acidified guanidine isothiocyanate method and the levels of c-fos mRNA determined by Northern blot analysis. Denatured RNA samples (12 μg) were analyzed by gel electrophoresis in a denaturing 1% agarose gel, transferred to a nylon membrane (Bio-Rad), cross-linked with an ultraviolet cross-linker (Stratagene UV stratalinker 1800), and hybridized with ^32P-labeled rat c-fos DNA. mRNA for tubulin and total RNA were used as controls. To determine tubulin mRNA, the blots described above were subsequently stripped of DNA and re-probed with ^32P-labeled rat P-tubulin cDNA. This experimented was conducted three times and the data collated.

[8] = Vanadyl sulfate release from PCL paste; type: physicochemical
Protocol: Drug release was determined essentially as described above in Example 33, except that a 65 mg pellet of a 10% w/w VOSO4:PCL was suspended in 10 ml of water and the supernatant analyzed for released Vanadyl Sulphate using UV/Vis absorbance spectroscopy of the peak in the 200 to 300 nm range.

## CN(Cc1cnc2nc(N)nc(N)c2n1)c1ccc(C(=O)N[C@@H](CCC(=O)O)C(=O)O)cc1 [MTX, Methotrexate]
[1]
  amount of MTX released from the polymer: substantial amounts

## CC(=O)O[C@H]1C(=O)[C@@]2(C)[C@H]([C@H](OC(=O)c3ccccc3)[C@]3(O)C[C@H](OC(=O)[C@H](O)[C@@H](NC(=O)c4ccccc4)c4ccccc4)C(C)=C1C3(C)C)[C@]1(OC(C)=O)CO[C@@H]1C[C@@H]2O [Paclitaxel]
Neutrophils [2]; plasma opsonised zymosan
  inhibition at 28 µM: 45%
Neutrophils [2]; plasma opsonized CPPD
  inhibition at 28 µM: 52%
[3]; 0.25 μg paclitaxel in methylcellulose disk
  Embryos Evaluated positive/total: 2/11
[3]; 0.5 μg paclitaxel in methylcellulose disk
  Embryos Evaluated positive/total: 6/11
[3]; 1 μg paclitaxel in methylcellulose disk
  Embryos Evaluated positive/total: 6/15
[3]; 5 μg paclitaxel in methylcellulose disk
  Embryos Evaluated positive/total: 20/27
[3]; 10 μg paclitaxel in methylcellulose disk
  Embryos Evaluated positive/total: 16/21
[3]; 30 μg paclitaxel in methylcellulose disk
  Embryos Evaluated positive/total: 31/31
[3]; in one study
  time for which avascular zones did not revascularize after application: at least 7 days
[3]; observed over the 48 hour duration
  earliest time at which inhibition of angiogenesis occurs after application: 9 h
[3]; paclitaxel in methylcellulose disk, 48 hour exposure
  avascular zone diameter: 6 mm
[3]; within 48 hours, depending on concentration
  avascular gradient scale (maximal avascular zone): 3
[4]
  % of the total drug released from the microspheres (fluorescence assay): 6%
  % of the total drug released from the microspheres (uv/vis assay): 10.3%
Normal chondrocytes
  effect on viability of normal chondrocytes: does not affect the viability
Neutrophils [5]
  LDH release: less than 5 % of total
synoviocytes
  lowest concentration inhibiting incorporation of 3H-thymidine: 10^−8 M
Synovial fibroblasts; 10^−6 M and 10^−5 M
  toxicity to synovial fibroblasts in vitro: toxic
Synovial fibroblasts
  lowest concentration inhibiting proliferation of the synoviocytes: 10^−7 M
Collagenase mRNA
  effect on IL-1 induced collagenase expression: completely inhibited
Neutrophils [6]; opsonised zymosan
  effect on superoxide anion production: less dramatic than the inhibition of CPPD activation but was significant at all times
Neutrophils [6]; plasma opsonised CPPD crystals
  effect on superoxide anion production: decrease in the amount of superoxide generated at all times
Neutrophils [7]; Homo sapiens, Neutrophil, […], read-out: inhibition of MPO release
  inhibition at 28 µM: 50%
Neutrophils [7]; paclitaxel at 28 μM, plasma opsonized CPPD
  effect on lysozyme release: reduced lysozyme release
Neutrophils [7]; plasma opsonized CPPD, paclitaxel 28 μM (FIG. 32A)
  effect on myeloperoxidase release: significantly inhibited
c-fos mRNA
  effect on c-fos expression: does not alter c-fos expression

## O=S(=O)([O-])[O-].[O]=[V+2] [VOSO4, Vanadyl Sulfate]
[8]; after 2 days, 65 mg pellet of 10% w/w VOSO4:PCL in 10 ml water
  amount of VOSO4 released: 3 mg
[8]; by day 6, 65 mg pellet of 10% w/w VOSO4:PCL in 10 ml water
  amount of VOSO4 released: 5 mg
[8]; in 6 hours, 65 mg pellet of 10% w/w VOSO4:PCL in 10 ml water
  amount of VOSO4 released: 1 mg
